Where a SMILES comes first, the peptide text is derived from it. [ ]: non-standard residue; d: D form. The star is where a group is joined. Dmt = Cc1cc(O)cc(C)c1C[C@H](N)C(=O)O; NHPhenethyl = c1ccc(CCN*)cc1; NHBn = c1ccc(CN*)cc1; NHPh = c1ccc(N*)cc1; NHtBu = CC(C)(C)N*
Columns and labels:
Cavia porcellus = species on record: Cavia porcellus; experiment: In vitro inhibitory concentration against electrically induced twitches in guinea pig ileum; assay type: functional
Mus musculus = species on record: Mus musculus; experiment: In vitro inhibitory concentration against electrically induced twitches in mouse vas deferens; assay type: functional
Mu-type opioid receptor = Mu-type opioid receptor (Rattus norvegicus, UniProt P33535); experiment: Binding affinity against rat brain Opioid receptor mu 1 using [3H]DAMGO radioligand
[1] = molecular target: Delta-type opioid receptor (Rattus norvegicus, UniProt P33533); experiment: Binding affinity against rat brain opioid receptor delta 1 using [3H]DPDPE radioligand
[2] = molecular target: Opioid receptors; mu & delta (Rattus norvegicus) (UniProt P33533+P33535); experiment: Ratio of binding affinity against rat brain delta opioid receptor to that of mu opioid receptor
Chain of Opioid receptors; mu & delta (Rattus norvegicus) (P33533 whole entry, looked up): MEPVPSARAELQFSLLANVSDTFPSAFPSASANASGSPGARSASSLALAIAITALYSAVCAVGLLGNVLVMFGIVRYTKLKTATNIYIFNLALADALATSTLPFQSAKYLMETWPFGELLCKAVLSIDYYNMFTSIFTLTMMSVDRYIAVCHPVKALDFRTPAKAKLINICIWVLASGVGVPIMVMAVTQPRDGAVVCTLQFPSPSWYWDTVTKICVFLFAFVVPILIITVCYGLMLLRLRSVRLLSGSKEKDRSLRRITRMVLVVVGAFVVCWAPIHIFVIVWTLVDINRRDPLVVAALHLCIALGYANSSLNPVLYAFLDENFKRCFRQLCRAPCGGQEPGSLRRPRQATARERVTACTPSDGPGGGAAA
Chain of Opioid receptors; mu & delta (Rattus norvegicus) (P33535 whole entry, looked up): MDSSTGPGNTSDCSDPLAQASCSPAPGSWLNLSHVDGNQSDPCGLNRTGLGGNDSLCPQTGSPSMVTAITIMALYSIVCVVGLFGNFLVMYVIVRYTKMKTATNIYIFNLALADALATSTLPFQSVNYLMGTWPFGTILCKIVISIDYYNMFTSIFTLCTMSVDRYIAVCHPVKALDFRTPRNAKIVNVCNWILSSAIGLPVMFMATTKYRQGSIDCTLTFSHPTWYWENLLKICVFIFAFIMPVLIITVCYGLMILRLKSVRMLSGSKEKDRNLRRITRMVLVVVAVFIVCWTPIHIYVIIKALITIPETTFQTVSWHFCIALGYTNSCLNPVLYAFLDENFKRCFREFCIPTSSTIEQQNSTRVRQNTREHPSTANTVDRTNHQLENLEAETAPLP

Chain of Mu-type opioid receptor (P33535 whole entry): as the sequence (P33535 whole entry, looked up) above
Chain of Delta-type opioid receptor (P33533 whole entry): as the sequence (P33533 whole entry, looked up) above

SMILES | IC50 (Cavia porcellus) | IC50 (Mus musculus) | Ki (Mu-type opioid receptor) | Ki [1] | Ratio [2]
Cc1cc(O)cc(C)c1C[C@H](N)C(=O)N1CCC[C@H]1C(=O)N[C@@H](Cc1ccccc1)C(=O)Nc1cccc2cccnc12 | 445 nM | 2980 nM | 0.49 nM | 33.1 nM | –
N[C@@H](Cc1ccc(O)cc1)C(=O)N1CCC[C@H]1C(=O)N[C@@H](Cc1ccccc1)C(=O)Nc1cccnc1 | – | – | 48.5 nM | 19400 nM | 400
Cc1cc(O)cc(C)c1C[C@H](N)C(=O)N1CCC[C@H]1C(=O)N[C@@H](Cc1ccccc1)C(=O)Nc1ccncc1 | 11.8 nM | 10000 nM | 0.36 nM | 52.7 nM | –
NC(=O)[C@H](Cc1ccccc1)NC(=O)[C@H](Cc1ccccc1)NC(=O)[C@@H]1CCCN1C(=O)[C@@H](N)Cc1ccc(O)cc1 [ENDOMORPHIN 2] | 5.79 nM | 344 nM | – | – | –
N[C@@H](Cc1ccc(O)cc1)C(=O)N1CCC[C@H]1C(=O)N[C@@H](Cc1ccccc1)C(=O)Nc1cccc2ncccc12 | – | – | 4.07 nM | 12700 nM | 3110
NC(=O)[C@H](Cc1ccccc1)NC(=O)[C@@H]1CCCN1C(=O)[C@@H](N)Cc1ccc(O)cc1 (H-Tyr-Pro-Phe-NH2) | – | – | 46.3 nM | 15900 nM | 343
N[C@@H](Cc1ccc(O)cc1)C(=O)N1CCC[C@H]1C(=O)N[C@@H](Cc1ccccc1)C(=O)NC1CCCCC1 | – | – | 5.79 nM | 8110 nM | 1400
N[C@@H](Cc1ccc(O)cc1)C(=O)N1CCC[C@H]1C(=O)N[C@@H](Cc1ccccc1)C(=O)Nc1ccccn1 | – | – | 26.5 nM | 19700 nM | 742
N[C@@H](Cc1ccc(O)cc1)C(=O)N1CCC[C@H]1C(=O)N[C@@H](Cc1ccccc1)C(=O)Nc1cccc2cnccc12 | – | – | 61.1 nM | 3480 nM | 57
N[C@@H](Cc1ccc(O)cc1)C(=O)N1CCC[C@H]1C(=O)N[C@@H](Cc1ccccc1)C(=O)NC1C2C[C@H]3C[C@@H](C2)C[C@@H]1C3 (some centres undefined) | – | – | 6.59 nM | 5560 nM | 844
N[C@@H](Cc1ccc(O)cc1)C(=O)N1CCC[C@H]1C(=O)N[C@@H](Cc1ccccc1)C(=O)NCc1ccccc1 (H-Tyr-Pro-Phe-NHBn) | – | – | 21.6 nM | 1730 nM | 80
Cc1cc(O)cc(C)c1C[C@H](N)C(=O)N1CCC[C@H]1C(=O)N[C@@H](Cc1ccccc1)C(=O)Nc1cccc2ccccc12 | 0.49 nM | 5.47 nM | – | 19.9 nM | 68
N[C@@H](Cc1ccc(O)cc1)C(=O)N1CCC[C@H]1C(=O)N[C@@H](Cc1ccccc1)C(=O)Nc1cccc2cccnc12 | – | – | 249 nM | 17100 nM | 68
Cc1cc(O)cc(C)c1C[C@H](N)C(=O)N1CCC[C@H]1C(=O)N[C@@H](Cc1ccccc1)C(N)=O (H-[Dmt]-Pro-Phe-NH2) | 2.33 nM | 113 nM | 0.12 nM | 53.2 nM | 443
Cc1cc(O)cc(C)c1C[C@H](N)C(=O)N1CCC[C@H]1C(=O)N[C@@H](Cc1ccccc1)C(=O)NCCc1ccccc1 (H-[Dmt]-Pro-Phe-NHPhenethyl) | 5.03 nM | > 10000 nM | 0.51 nM | 18 nM | 35
N[C@@H](Cc1ccc(O)cc1)C(=O)N1CCC[C@H]1C(=O)N[C@@H](Cc1ccccc1)C(=O)Nc1cccc2ccccc12 | – | – | 2.41 nM | 3640 nM | 1510

SMILES | IC50 (Cavia porcellus) | IC50 (Mus musculus) | Ki (Mu-type opioid receptor) | Ki [1] | Ratio [2]
Cc1cc(O)cc(C)c1C[C@H](N)C(=O)N1CCC[C@H]1C(=O)N[C@@H](Cc1ccccc1)C(=O)Nc1cccc2ncccc12 | 0.26 nM | 0.616 nM | 0.11 nM | 30 nM | 283
Cc1cc(O)cc(C)c1C[C@H](N)C(=O)N1CCC[C@H]1C(=O)N[C@@H](Cc1ccccc1)C(=O)Nc1ccc2ncccc2c1 | 6.21 nM | > 10000 nM | 0.22 nM | 46.6 nM | –
Cc1cc(O)cc(C)c1C[C@H](N)C(=O)N1CCC[C@H]1C(=O)N[C@@H](Cc1ccccc1)C(=O)Nc1ccccc1 (H-[Dmt]-Pro-Phe-NHPh) | 37.7 nM | > 10000 nM | 1.11 nM | 20.6 nM | –
Cc1cc(O)cc(C)c1C[C@H](N)C(=O)N1CCC[C@H]1C(=O)N[C@@H](Cc1ccccc1)C(=O)Nc1cccc2cnccc12 | 0.94 nM | > 10000 nM | 0.19 nM | 98.3 nM | –
Cc1cc(O)cc(C)c1C[C@H](N)C(=O)N1CCC[C@H]1C(=O)N[C@@H](Cc1ccccc1)C(=O)Nc1cccnc1 | 72.8 nM | > 10000 nM | 0.17 nM | 288 nM | –
N[C@@H](Cc1ccc(O)cc1)C(=O)N1CCC[C@H]1C(=O)N[C@@H](Cc1ccccc1)C(=O)Nc1ccncc1 | – | – | 48.2 nM | 25100 nM | 521
N[C@@H](Cc1ccc(O)cc1)C(=O)N1CCC[C@H]1C(=O)N[C@@H](Cc1ccccc1)C(=O)Nc1cnc2ccccc2c1 | – | – | 55.8 nM | 18600 nM | 333
Cc1cc(O)cc(C)c1C[C@H](N)C(=O)N1CCC[C@H]1C(=O)N[C@@H](Cc1ccccc1)C(=O)Nc1cnc2ccccc2c1 | 9.14 nM | > 10000 nM | 0.33 nM | 190 nM | 577
N[C@@H](Cc1ccc(O)cc1)C(=O)N1CCC[C@H]1C(=O)N[C@@H](Cc1ccccc1)C(=O)Nc1ccccc1 (H-Tyr-Pro-Phe-NHPh) | – | – | 33.5 nM | 23200 nM | 692
Cc1cc(O)cc(C)c1C[C@H](N)C(=O)N1CCC[C@H]1C(=O)N[C@@H](Cc1ccccc1)C(=O)N[C@@H](Cc1ccccc1)C(N)=O | 0.07 nM | 1.87 nM | 0.15 nM | 28.2 nM | 188
Cc1cc(O)cc(C)c1C[C@H](N)C(=O)N1CCC[C@H]1C(=O)N[C@@H](Cc1ccccc1)C(=O)NCc1ccccc1 (H-[Dmt]-Pro-Phe-NHBn) | 22 nM | > 10000 nM | 0.52 nM | 13.8 nM | –
N[C@@H](Cc1ccc(O)cc1)C(=O)N1CCC[C@H]1C(=O)N[C@@H](Cc1ccccc1)C(=O)NC12C[C@H]3C[C@@H](C1)C[C@@H](C2)C3 | – | – | 23.6 nM | 6260 nM | 265
CC(C)(C)NC(=O)[C@H](Cc1ccccc1)NC(=O)[C@@H]1CCCN1C(=O)[C@@H](N)Cc1ccc(O)cc1 (H-Tyr-Pro-Phe-NHtBu) | – | – | 19.6 nM | 13300 nM | 680
N[C@@H](Cc1ccc(O)cc1)C(=O)N1CCC[C@H]1C(=O)N[C@@H](Cc1ccccc1)C(=O)Nc1ccc2ncccc2c1 | – | – | 72.9 nM | 9880 nM | 136
Cc1cc(O)cc(C)c1C[C@H](N)C(=O)N1CCC[C@H]1C(=O)N[C@@H](Cc1ccccc1)C(=O)Nc1ccccn1 | 15 nM | > 10000 nM | 0.13 nM | 157 nM | –
N[C@@H](Cc1ccc(O)cc1)C(=O)N1CCC[C@H]1C(=O)N[C@@H](Cc1ccccc1)C(=O)NCCc1ccccc1 (H-Tyr-Pro-Phe-NHPhenethyl) | – | – | 13.3 nM | 4310 nM | 324
